Where two headings read alike, the source gives them in different places.

Data set [1] deals with SARS‐CoV‐2. The conditions noted are these: previously found; cited from earlier work.
Data set [2] deals with SARS‐CoV‐2/FFM1. Put plainly: microbe, parasite or virus in culture. The following applies: Severe acute respiratory syndrome coronavirus 2, Caco-2, 48 h, read-out: EC50 visual CPE.
Data set [3] relates to SARS‐CoV‐2/FFM1.
Data set [4] concerns SARS‐CoV‐2. The conditions noted are these: read-out: EC50 reported in previous studies (range); cited from earlier work.

For `CCN(CC)CCCC(C)Nc1ccnc2cc(Cl)ccc12` (stereo not shown) [Chloroquine], in the data set with SARS‐CoV‐2 [1], the “activity in SARS‐CoV‐2–infected Caco‐2 cells” value is “inactive”.
Consider `COc1cccc2c1C(=O)c1c(O)c3c(c(O)c1C2=O)C[C@@](O)(C(=O)CO)C[C@@H]3O[C@H]1C[C@H](N)[C@H](O)[C@H](C)O1` [Doxorubicin], for which the EC50 (in general, the concentration at which the effect is half-maximal) with SARS‐CoV‐2/FFM1 [2] was found to be 12 µM.
Turning to `CCN(CCO)CCCC(C)Nc1ccnc2cc(Cl)ccc12` (stereo not shown) [Hydroxychloroquine], the “activity in SARS‐CoV‐2–infected Caco‐2 cells” value in the data set with SARS‐CoV‐2 [1] was “inactive”.
On to `CCC(C)n1ncn(-c2ccc(N3CCN(c4ccc(OCC5COC(Cn6cncn6)(c6ccc(Cl)cc6Cl)O5)cc4)CC3)cc2)c1=O` (stereo not shown) [Itraconazole], for which, in the data set on SARS‐CoV‐2/FFM1 [2], the half-maximal effective concentration (EC50) was determined as 1.6 µM.
In the case of `Cc1c(O)cccc1C(=O)N[C@@H](CSc1ccccc1)[C@H](O)CN1C[C@H]2CCCC[C@H]2C[C@H]1C(=O)NC(C)(C)C` [Nelfinavir], the EC50 with SARS‐CoV‐2/FFM1 [2] stood at 8.1 µM.
With `O=C(NC1CN2CCC1CC2)c1cc(Cl)cc2c1OC1CCCCC21` (stereo not shown) [RG‐12915], the EC50 in the data set with SARS‐CoV‐2/FFM1 [3] (read-out: EC50 visual CPE) amounted to 12 µM.
Take `CCC(CC)COC(=O)[C@H](C)N[P@](=O)(OC[C@H]1O[C@@](C#N)(c2ccc3c(N)ncnn23)[C@H](O)[C@@H]1O)Oc1ccccc1` [Remdesivir]: the values for the EC50 in the data set with SARS‐CoV‐2 [4] and with SARS‐CoV‐2/FFM1 [2] were 0.77 to 7.28 µM and 1.3 µM, respectively.
As for `CCN(CC)CCNC(=O)c1ccc(NS(C)(=O)=O)cc1` [Sematilide], the EC50 in the data set on SARS‐CoV‐2/FFM1 [2] was more than 100 µM. In addition, in the data set on SARS‐CoV‐2/FFM1 [3] (Caco‐2 cells, SARS‐CoV‐2/FFM1), the “antiviral activity in Caco‐2 cells” value is listed as “not active”.

Source of the values: paper PMC9088669 (Journal of Medical Virology, 2022).
